Reference: US20040224020A1, “Oral dosage forms with therapeutically active agents in controlled release cores and immediate release gelatin capsule coats” (priority 2002, published 2004)

Experiments:
[1] = Excerpt: Where the controlled release core is in the form of a liquid, the amount and type of solvent used with SAIB should be optimized so as to obtain a liquid wherein the at least one therapeutically active agent is acceptably soluble.
In order to obtain a soluble liquid fill, the amounts of (i) SAIB, (ii) at least one biocompatible solvent, and (iii) at least one therapeutically active agent is optimized.

[2] = Viscosity of SAIB/solvent compositions, Cannon-Fenske viscometer; assay type: physicochemical; conditions: Cannon-Fenske viscometer of size 200 at 30° C.

| SMILES | ethanol required to achieve solubility with SAIB [1] | viscosity (centipoises value) [2] [centipoises] |
| --- | --- | --- |
| CC(C)Cc1ccc(C(C)C(=O)O)cc1 (centres unmarked) [ibuprofen] | approximately 15 % (by weight) | – |
| CCO [ethanol] | – | 1.3 |
